Results: publication PMC4748415, “Impact of different cell penetrating peptides on the efficacy of antisense therapeutics for targeting intracellular pathogens” (Scientific Reports, 2016)
Where “and” joins values, the source holds several entries; their conditions need not be identical. Equal values may be shown once. Entries after “also recorded” stand apart in the source; their conditions may differ. Read-outs that look alike come from different tables or passages of the source. Marks after values point to notes of the source that are not given here.

Experiments:
[1] = tested on: cytoplasmic membrane of L. monocytogenes F4244; assay: Calcein leakage assay; type: cell-based, Listeria monocytogenes; settings: 30 min exposure; PRXR 8 × MIC (8 μM), nisin 5 × MIC (10 μg/ml); fluorescence, n = 3
Description: To investigate the effect of PNA on the integrity of the Listeria cell membrane, the leakage of the preloaded fluorescent dye, calcein, was monitored and quantified as described before with a few modifications. Briefly, 20 ml of logarithmic growth phase (OD600 = 1.0, ~10^9 CFU/ml) L. monocytogenes F4244 was centrifuged and bacteria were resuspended in 9 ml of sterile PBS plus 1 ml of BHI. 3 μM of calcein AM dye was added to the bacterial suspension prior to covering the suspension with aluminum foil and incubating for one hour at 37 °C. After 10 minutes centrifugation at 3,000 × g, the supernatant was discarded. The calcein-loaded bacterial cells were resuspended in 30 ml of sterile PBS and 100 μL calcein-loaded bacteria were distributed in a 96-well microtiter plate (in triplicate). PRXR was added in a concentration equal to 8 × MIC (8 μM). Nisin 5 × MIC (10 μg/ml) and sterile water were used as positive and negative controls, respectively. Intensity of fluorescence (calcein leakage) was detected every 5 minutes for 30 minutes using a fluorescence plate reader (FLx800 model BioTek® Instruments, Inc. Winooski, Vermont) with the excitation and emission filters adjusted to 485 nm and 520 nm, respectively.

L. monocytogenes F4244 [2] = assay: Concentration-dependent bacterial log reduction in pure culture; type: cell-based, Listeria monocytogenes; settings: for Log CFU/ml: pure culture F4244, 16 hour incubation; for Log CFU reduction: relative to control, pure culture F4244
Description: (§1) The MICs of conjugated PNAs, free PNA, CPPs and untreated control against L. monocytogenes were determined using the broth microdilution method according to the Clinical and Laboratory Standards Institute (CLSI) guidelines with the following modifications. Briefly, low binding clear microcentrifuge tubes (USA scientific, Inc. Ocala, FL) were used in triplicates for each reaction instead of traditional 96-well plates. […] After a 16 hour incubation period (of test agent with bacteria), the number of viable bacteria was enumerated by serial dilution and counting on TSA plates. The MICs were repeated at least twice.

[3] = tested on: mitochondrial biogenesis in J774A.1 cells; assay: Mitobiogenesis assay (In-Cell ELISA, COX-I/SDH-A); settings: three days, tested at 0.1, 1, 10 and 20 μM, COX-I/SDH-A ratio
Description: To measure the effect of PNA on the mitochondrial biogenesis, In-Cell ELISA Kit (MitoSciences Inc., Eugene, OR, USA) was used as per the manufacturer’s instructions[54][55]. Briefly, J774A.1 cells were seeded (approximately 40,000 cells per well) in 96-well plates and allowed to adhere. […] Cells were allowed to grow for approximately 3 days. Media were removed and cells were washed with PBS, then fixed with 4% paraformaldehyde. After fixing, cells were washed with PBS and permeabilization and blocking processes were done according to the manufacturer’s instructions. Primary antibodies to detect the levels of two proteins (subunit I of Complex IV (COX-I), that is mitochondrial DNA (mtDNA)-encoded), and the 70 kDa subunit of Complex II (SDH-A), a nuclear DNA (nDNA)-encoded were added and incubated for overnight at 4 °C. After incubation, cells were washed with PBS and secondary antibodies were added and incubated at room temperature for one hour. After washing, the expression of SDH-A and COX-1 were measured at 405 nm and 600 nm wavelength, respectively. The ratio between COX-I and SDH-A was calculated and the percent of inhibition of mitochondrial biogenesis was determined.

plcA = assay: Real-Time qRT-PCR gene expression, plcA; type: cell-based, L. monocytogenes F4244; settings: 2 μM PTAT, 3.5 hours, 37 °C
L. monocytogenes F4244 [4] = assay: Time kill assay; type: cell-based, Listeria monocytogenes; settings: 12 hours; for time to complete eradication of Listeria: 32 μM PNA, 37 °C, samples every 2 hours, ~10^5 CFU/ml; for bactericidal or bacteriostatic activity: L. monocytogenes, time kill at 32 μM
Description: L. monocytogenes F4244 in logarithmic growth phase was diluted to ~10^5 CFU/ml and incubated with 32 μM of the five PNAs (in triplicates) at 37 °C for 12 hours. Samples were collected every two hours, serially diluted, and plated onto TSA plates. Plates were then incubated wat 37 °C for 24 hours before viable CFUs were determined.
Samples were collected every 20 minutes and processed as above.

hly = assay: Real-Time qRT-PCR gene expression, hly; type: cell-based, L. monocytogenes F4244; settings: 2 μM PTAT, 3.5 hours, 37 °C
rpoA = settings: 3.5 hours, 37 °C
plcB = assay: Real-Time qRT-PCR gene expression, plcB; type: cell-based, L. monocytogenes F4244; settings: 3.5 hours, 37 °C
[5] = tested on: L. monocytogenes J0161 in infected C. elegans; assay: C. elegans infection model; settings: 18 hours treatment; for Log CFUs/worm: 10 worms in triplicates; for Log CFUs reduction: versus water
Description: To test the efficacy of PNA in vivo we used Listeria-infected C. elegans. The temperature-sensitive sterile mutant strain C. elegans AU37 [sek-1(km4); glp-4(bn2) I] was used for this study. This strain is sterile at room temperature and can lay eggs only at 15 °C. Furthermore, mutation in the sek-1 gene of the p38 mitogen-activated protein kinase pathway (p38 MAPK pathway), makes this particular C. elegans strain more susceptible to Listeria infection[49][56]. Initially, the pathogenicity of three strains of Listeria (F4244, J0161 and ATCC19111) was tested in C. elegans as described before[24] to determine the most virulent strain to use for this study. […] Briefly, adult worms were grown for 5 days, at 15 °C (temperature that permits worms to lay eggs) on NGM agar plates seeded with a lawn of E. coli OP50. The eggs were harvested by bleaching[57] and maintained for 24 hours at room temperature with gentle agitation for hatching. Hatched larvae were transferred to a new NGM plate seeded with E. coli OP50 and were kept at room temperature for five days until worms reached the adult stage of growth. Adult worms were collected and washed three times with M9 media in a 1:10 ratio to remove E. coli before transfer to LB agar plates seeded with a lawn of L. monocytogenes J0161 for infection. After eight hours of infection, worms were collected and washed with M9 buffer five times before incubation with PNAs. Worms were transferred to low-binding microcentrifuge tubes (10 worms per tube). […] After treatment for 18 hours, worms were washed five times with M9 buffer. […] Samples were serially diluted and plated onto TSA plates containing 5 μg/ml nalidixic acid to select for Listeria.

L. monocytogenes F4244 [6] = assay: Time kill assay; type: cell-based, Listeria monocytogenes; settings: 8 μM PNA, 37 °C, samples every 20 minutes, inoculum 2.4 × 10^5 CFU/ml
[7] = tested on: clinical isolates of L. monocytogenes; type: cell-based, Listeria monocytogenes; settings: for MIC50: concentration required to inhibit 50% of L. monocytogenes isolates (six isolates); for MIC: broth microdilution in low binding tubes, triplicates, 16 hour incubation
Description: as §1

[8] = tested on: L. monocytogenes F4244 inside infected J774A.1 cells; type: cell-based; settings: 4 hours; for Log CFU/ml: intracellular F4244 in J774A.1; for Log CFU reduction: intracellular F4244 in J774A.1, versus control
MRSA USA300 = assay: MIC against MRSA in pure culture; type: cell-based; settings: multiple of the Listeria MIC, data not shown

Substance: nisin [reference compound]
- calcein leakage [1]: more than 72%

Substance: GRKKKRRQRRRYK-O-cgatcattcaaa-NH2 [PTAT, anti-rpoA PNA covalently conjugated to the TAT CPP]
- Log CFU/ml (L. monocytogenes F4244 [2]; 1 µM PNA): 8.28±0.37 Log CFU/ml
- Log CFU reduction (L. monocytogenes F4244 [2]; 1 µM PNA): 1.1 Log CFU
- Log CFU/ml (L. monocytogenes F4244 [2]; 2 µM PNA): 5.94±0.42 Log CFU/ml
- Log CFU reduction (L. monocytogenes F4244 [2]; 2 µM PNA): 3.45 Log CFU
- Log CFU/ml (L. monocytogenes F4244 [2]; 4 µM PNA): Cleared
- Log CFU reduction (L. monocytogenes F4244 [2]; 4 µM PNA): 9.39 Log CFU
- Log CFU/ml (L. monocytogenes F4244 [2]; 8 µM PNA): Cleared
- Log CFU reduction (L. monocytogenes F4244 [2]; 8 µM PNA): 9.39 Log CFU
- Log CFU/ml (L. monocytogenes F4244 [2]; 16 µM PNA): Cleared
- Log CFU reduction (L. monocytogenes F4244 [2]; 16 µM PNA): 9.39 Log CFU
- Log CFU/ml (L. monocytogenes F4244 [2]; 32 µM PNA): Cleared
- Log CFU reduction (L. monocytogenes F4244 [2]; 32 µM PNA): 9.39 Log CFU
- inhibition of mitochondrial protein synthesis (mitobiogenesis) [3]: does not interfere with the mitochondrial protein synthesis process
- decrease of plcA gene expression (plcA): more than 70%
- time to complete eradication of Listeria (L. monocytogenes F4244 [4]): ≤ 2 h
- bactericidal or bacteriostatic activity (L. monocytogenes F4244 [4]): bactericidal activity
- downregulation of hly gene (hly): more than 50%
- percentage of gene expression of rpoA (rpoA; 1 μM PTAT): more than 50%
- reduction in rpoA gene expression (rpoA; 1 μM PTAT): 50% and 43.7%
- percentage of gene expression of rpoA (rpoA; 4 μM PTAT): less than 5%
- reduction in plcB gene expression (plcB; 1 μM PTAT): 55.9%
- decrease of plcB gene expression (plcB; 2 μM PTAT): more than 70%
- Log CFUs/worm ([5]; 16 µM): 3.04±0.36 Log CFUs/worm
- Log CFUs reduction ([5]; 16 µM): 1.11 Log CFUs
- Log CFUs/worm ([5]; 32 µM): 1.7±0.6 Log CFUs/worm
- Log CFUs reduction ([5]; 32 µM): 2.67 Log CFUs
- time to complete elimination of starting inoculum (L. monocytogenes F4244 [6]): ≤ 20 min
- MIC50 [7]: 2 µM
- MIC ([7]; strain ATCC 13932): 4 µM
- MIC ([7]; strain ATCC 19111): 4 µM
- MIC ([7]; strain ATCC 19112): 2 µM
- MIC ([7]; strain ATCC 19114): 0.5 µM
- MIC ([7]; strain F4244, no turbidity): 2 µM
- MIC ([7]; strain J0161): 4 µM
- Log CFU/ml ([8]; 2 μM): 5.95 ± 0.02 Log CFU/ml
- Log CFU reduction ([8]; 2 μM): 0.78 Log CFU
- Log CFU/ml ([8]; 4 μM): 5.19 ± 0.33 Log CFU/ml
- Log CFU reduction ([8]; 4 μM): 1.54* Log CFU
- Log CFU/ml ([8]; 8 μM): 4.22 ± 0.11 Log CFU/ml
- Log CFU reduction ([8]; 8 μM): 2.51* Log CFU

Substance: RXRRXRRXRRXRXB-O-cgatcattcaaa-NH2 [PRXR, anti-rpoA PNA covalently conjugated to the (RXR)4XB CPP]
- calcein leakage [1]: did not result in leakage; also recorded: does not permeabilize the bacterial cell membrane
- Log CFU/ml (L. monocytogenes F4244 [2]; 1 µM PNA): 6.87±0.84 Log CFU/ml
- Log CFU reduction (L. monocytogenes F4244 [2]; 1 µM PNA): 2.51 Log CFU
- Log CFU/ml (L. monocytogenes F4244 [2]; 2 µM PNA): 3.15±0.21 Log CFU/ml
- Log CFU reduction (L. monocytogenes F4244 [2]; 2 µM PNA): 6.24 Log CFU
- Log CFU/ml (L. monocytogenes F4244 [2]; 4 µM PNA): Cleared
- Log CFU reduction (L. monocytogenes F4244 [2]; 4 µM PNA): 9.39 Log CFU
- Log CFU/ml (L. monocytogenes F4244 [2]; 8 µM PNA): Cleared
- Log CFU reduction (L. monocytogenes F4244 [2]; 8 µM PNA): 9.39 Log CFU
- Log CFU/ml (L. monocytogenes F4244 [2]; 16 µM PNA): Cleared
- Log CFU reduction (L. monocytogenes F4244 [2]; 16 µM PNA): 9.39 Log CFU
- Log CFU/ml (L. monocytogenes F4244 [2]; 32 µM PNA): Cleared
- Log CFU reduction (L. monocytogenes F4244 [2]; 32 µM PNA): 9.39 Log CFU
- time to complete eradication of Listeria (L. monocytogenes F4244 [4]): ≤ 2 h
- bactericidal or bacteriostatic activity (L. monocytogenes F4244 [4]): bactericidal activity
- concentration without inhibition of bacterial growth (MRSA USA300): > 16 × MIC
- Log CFUs/worm ([5]; 16 µM): 2.24±0.99 Log CFUs/worm
- Log CFUs reduction ([5]; 16 µM): 1.91 Log CFUs
- Log CFUs reduction ([5]; 32 µM): 4.38 Log CFUs
- time to complete elimination of starting inoculum (L. monocytogenes F4244 [6]): ≤ 20 min
- MIC50 [7]: 1 µM
- MIC ([7]; strain ATCC 13932): 2 µM
- MIC ([7]; strain ATCC 19111): 1 µM
- MIC ([7]; strain ATCC 19112): 1 µM
- MIC ([7]; strain ATCC 19114): 0.25 µM
- MIC ([7]; strain F4244, no turbidity): 1 µM
- MIC ([7]; strain J0161): 4 µM
- Log CFU/ml ([8]; 2 μM): 4.95 ± 0.07 Log CFU/ml
- Log CFU reduction ([8]; 2 μM): 1.78 Log CFU
- Log CFU/ml ([8]; 4 μM): 3.079 Log CFU/ml
- Log CFU reduction ([8]; 4 μM): 3.65* Log CFU
- Log CFU/ml ([8]; 8 μM): complete clearance; also recorded: cleared
- Log CFU reduction ([8]; 8 μM): 6.73* Log CFU
